# Measurements: ChEMBL document CHEMBL3044736, “Synthesis, characterization, solvatochromic properties, and antimicrobial evaluation of 5-acetyl-2-thioxo-dihydro-pyrimidine-4,6-dione-based chalcones” (2013)
# Tests used:
# Format in all cases: functional
# Trichophyton rubrum [1] = experiment: Antimicrobial activity against Trichophyton rubrum MTCC 296 by agar cup diffusion method
# Trichophyton rubrum [2] = experiment: Antimicrobial activity against Trichophyton rubrum MTCC 296 assessed as diameter of growth inhibition zone at 100 ug/ml after 48-96 hr by agar cup diffusion method; conditions: read-out: DIZ
# Streptococcus pyogenes [3] = experiment: Antimicrobial activity against Streptococcus pyogenes MTCC 442 assessed as diameter of growth inhibition zone at 250 ug/ml after 18-24 hr by agar cup diffusion method; conditions: read-out: DIZ
# Klebsiella pneumoniae [4] = experiment: Antimicrobial activity against Klebsiella pneumoniae MTCC 109 assessed as diameter of growth inhibition zone at 250 ug/ml after 18-24 hr by agar cup diffusion method; conditions: read-out: DIZ
# Escherichia coli [5] = experiment: Antimicrobial activity against Escherichia coli MTCC 443 assessed as diameter of growth inhibition zone at 25 ug/ml after 18-24 hr by agar cup diffusion method; conditions: read-out: DIZ
# Trichophyton rubrum [6] = experiment: Antimicrobial activity against Trichophyton rubrum MTCC 296 assessed as diameter of growth inhibition zone at 250 ug/ml after 48-96 hr by agar cup diffusion method; conditions: read-out: DIZ
# Candida albicans [7] = experiment: Antimicrobial activity against Candida albicans MTCC 227 assessed as diameter of growth inhibition zone at 100 ug/ml after 48-96 hr by agar cup diffusion method; conditions: read-out: DIZ
# Penicillium [8] = experiment: Antimicrobial activity against Penicillium wild strain assessed as diameter of growth inhibition zone at 50 ug/ml after 48-96 hr by agar cup diffusion method; conditions: read-out: DIZ
# Penicillium [9] = experiment: Antimicrobial activity against Penicillium wild strain assessed as diameter of growth inhibition zone at 100 ug/ml after 48-96 hr by agar cup diffusion method; conditions: read-out: DIZ
# Pseudomonas aeruginosa [10] = experiment: Antimicrobial activity against Pseudomonas aeruginosa MTCC 1688 assessed as diameter of growth inhibition zone at 250 ug/ml after 18-24 hr by agar cup diffusion method; conditions: read-out: DIZ
# Candida albicans [11] = experiment: Antimicrobial activity against Candida albicans MTCC 227 assessed as diameter of growth inhibition zone at 50 ug/ml after 48-96 hr by agar cup diffusion method; conditions: read-out: DIZ
# Aspergillus clavatus [12] = experiment: Antimicrobial activity against Aspergillus clavatus MTCC 1323 by agar cup diffusion method
# Escherichia coli [13] = experiment: Antimicrobial activity against Escherichia coli MTCC 443 by agar cup diffusion method
# Aspergillus clavatus [14] = experiment: Antimicrobial activity against Aspergillus clavatus MTCC 1323 assessed as diameter of growth inhibition zone at 25 ug/ml after 48-96 hr by agar cup diffusion method; conditions: read-out: DIZ
# Streptococcus pyogenes [15] = experiment: Antimicrobial activity against Streptococcus pyogenes MTCC 442 assessed as diameter of growth inhibition zone at 25 ug/ml after 18-24 hr by agar cup diffusion method; conditions: read-out: DIZ
# Escherichia coli [16] = experiment: Antimicrobial activity against Escherichia coli MTCC 443 assessed as diameter of growth inhibition zone at 50 ug/ml after 18-24 hr by agar cup diffusion method; conditions: read-out: DIZ
# Streptococcus pyogenes [17] = experiment: Antimicrobial activity against Streptococcus pyogenes MTCC 442 assessed as diameter of growth inhibition zone at 100 ug/ml after 18-24 hr by agar cup diffusion method; conditions: read-out: DIZ
# Klebsiella pneumoniae [18] = experiment: Antimicrobial activity against Klebsiella pneumoniae MTCC 109 assessed as diameter of growth inhibition zone at 100 ug/ml after 18-24 hr by agar cup diffusion method; conditions: read-out: DIZ
# Candida albicans [19] = experiment: Antimicrobial activity against Candida albicans MTCC 227 by agar cup diffusion method
# Pseudomonas aeruginosa [20] = experiment: Antimicrobial activity against Pseudomonas aeruginosa MTCC 1688 assessed as diameter of growth inhibition zone at 50 ug/ml after 18-24 hr by agar cup diffusion method; conditions: read-out: DIZ
# Streptococcus pyogenes [21] = experiment: Antimicrobial activity against Streptococcus pyogenes MTCC 442 assessed as diameter of growth inhibition zone at 50 ug/ml after 18-24 hr by agar cup diffusion method; conditions: read-out: DIZ
# Klebsiella pneumoniae [22] = experiment: Antimicrobial activity against Klebsiella pneumoniae MTCC 109 by agar cup diffusion method
# Penicillium [23] = experiment: Antimicrobial activity against Penicillium wild strain assessed as diameter of growth inhibition zone at 250 ug/ml after 48-96 hr by agar cup diffusion method; conditions: read-out: DIZ
# Staphylococcus aureus [24] = experiment: Antimicrobial activity against Staphylococcus aureus MTCC 96 by agar cup diffusion method
# Staphylococcus aureus [25] = experiment: Antimicrobial activity against Staphylococcus aureus MTCC 96 assessed as diameter of growth inhibition zone at 25 ug/ml after 18-24 hr by agar cup diffusion method; conditions: read-out: DIZ
# Staphylococcus aureus [26] = experiment: Antimicrobial activity against Staphylococcus aureus MTCC 96 assessed as diameter of growth inhibition zone at 100 ug/ml after 18-24 hr by agar cup diffusion method; conditions: read-out: DIZ
# Staphylococcus aureus [27] = experiment: Antimicrobial activity against Staphylococcus aureus MTCC 96 assessed as diameter of growth inhibition zone at 250 ug/ml after 18-24 hr by agar cup diffusion method; conditions: read-out: DIZ
# Pseudomonas aeruginosa [28] = experiment: Antimicrobial activity against Pseudomonas aeruginosa MTCC 1688 by agar cup diffusion method
# Aspergillus clavatus [29] = experiment: Antimicrobial activity against Aspergillus clavatus MTCC 1323 assessed as diameter of growth inhibition zone at 50 ug/ml after 48-96 hr by agar cup diffusion method; conditions: read-out: DIZ
# Penicillium [30] = experiment: Antimicrobial activity against Penicillium wild strain assessed as diameter of growth inhibition zone at 25 ug/ml after 48-96 hr by agar cup diffusion method; conditions: read-out: DIZ
# Klebsiella pneumoniae [31] = experiment: Antimicrobial activity against Klebsiella pneumoniae MTCC 109 assessed as diameter of growth inhibition zone at 50 ug/ml after 18-24 hr by agar cup diffusion method; conditions: read-out: DIZ
# Aspergillus clavatus [32] = experiment: Antimicrobial activity against Aspergillus clavatus MTCC 1323 assessed as diameter of growth inhibition zone at 100 ug/ml after 48-96 hr by agar cup diffusion method; conditions: read-out: DIZ
# Escherichia coli [33] = experiment: Antimicrobial activity against Escherichia coli MTCC 443 assessed as diameter of growth inhibition zone at 250 ug/ml after 18-24 hr by agar cup diffusion method; conditions: read-out: DIZ
# Penicillium [34] = experiment: Antimicrobial activity against Penicillium wild strain by agar cup diffusion method
# Pseudomonas aeruginosa [35] = experiment: Antimicrobial activity against Pseudomonas aeruginosa MTCC 1688 assessed as diameter of growth inhibition zone at 100 ug/ml after 18-24 hr by agar cup diffusion method; conditions: read-out: DIZ
# Pseudomonas aeruginosa [36] = experiment: Antimicrobial activity against Pseudomonas aeruginosa MTCC 1688 assessed as diameter of growth inhibition zone at 25 ug/ml after 18-24 hr by agar cup diffusion method; conditions: read-out: DIZ
# Candida albicans [37] = experiment: Antimicrobial activity against Candida albicans MTCC 227 assessed as diameter of growth inhibition zone at 25 ug/ml after 48-96 hr by agar cup diffusion method; conditions: read-out: DIZ
# Staphylococcus aureus [38] = experiment: Antimicrobial activity against Staphylococcus aureus MTCC 96 assessed as diameter of growth inhibition zone at 50 ug/ml after 18-24 hr by agar cup diffusion method; conditions: read-out: DIZ
# Escherichia coli [39] = experiment: Antimicrobial activity against Escherichia coli MTCC 443 assessed as diameter of growth inhibition zone at 100 ug/ml after 18-24 hr by agar cup diffusion method; conditions: read-out: DIZ
# Trichophyton rubrum [40] = experiment: Antimicrobial activity against Trichophyton rubrum MTCC 296 assessed as diameter of growth inhibition zone at 25 ug/ml after 48-96 hr by agar cup diffusion method; conditions: read-out: DIZ
# Streptococcus pyogenes [41] = experiment: Antimicrobial activity against Streptococcus pyogenes MTCC 442 by agar cup diffusion method
# Klebsiella pneumoniae [42] = experiment: Antimicrobial activity against Klebsiella pneumoniae MTCC 109 assessed as diameter of growth inhibition zone at 25 ug/ml after 18-24 hr by agar cup diffusion method; conditions: read-out: DIZ
# Aspergillus clavatus [43] = experiment: Antimicrobial activity against Aspergillus clavatus MTCC 1323 assessed as diameter of growth inhibition zone at 250 ug/ml after 48-96 hr by agar cup diffusion method; conditions: read-out: DIZ
# Candida albicans [44] = experiment: Antimicrobial activity against Candida albicans MTCC 227 assessed as diameter of growth inhibition zone at 250 ug/ml after 48-96 hr by agar cup diffusion method; conditions: read-out: DIZ
# Trichophyton rubrum [45] = experiment: Antimicrobial activity against Trichophyton rubrum MTCC 296 assessed as diameter of growth inhibition zone at 50 ug/ml after 48-96 hr by agar cup diffusion method; conditions: read-out: DIZ
smiles,measurement,setting,value
Cc1ccc(/C=C/C(=O)C2C(=O)NC(=S)NC2=O)cc1,MFC,Trichophyton rubrum [1],> 1000 µg/mL
same,MIC,Trichophyton rubrum [1],> 1000 µg/mL
same,zone of inhibition at 100 µg/mL,Trichophyton rubrum [2],22 mm
same,zone of inhibition at 250 µg/mL,Streptococcus pyogenes [3],19 mm
same,zone of inhibition at 250 µg/mL,Klebsiella pneumoniae [4],17 mm
same,zone of inhibition at 25 µg/mL,Escherichia coli [5],15 mm
same,zone of inhibition at 250 µg/mL,Trichophyton rubrum [6],25 mm
same,zone of inhibition at 100 µg/mL,Candida albicans [7],21 mm
same,zone of inhibition at 50 µg/mL,Penicillium [8],18 mm
same,zone of inhibition at 100 µg/mL,Penicillium [9],19 mm
same,zone of inhibition at 250 µg/mL,Pseudomonas aeruginosa [10],17 mm
same,zone of inhibition at 50 µg/mL,Candida albicans [11],20 mm
same,MFC,Aspergillus clavatus [12],> 1000 µg/mL
same,MIC,Aspergillus clavatus [12],> 1000 µg/mL
same,MBC,Escherichia coli [13],200 µg/mL
same,MIC,Escherichia coli [13],100 µg/mL
same,zone of inhibition at 25 µg/mL,Aspergillus clavatus [14],21 mm
same,zone of inhibition at 25 µg/mL,Streptococcus pyogenes [15],15 mm
same,zone of inhibition at 50 µg/mL,Escherichia coli [16],15 mm
same,zone of inhibition at 100 µg/mL,Streptococcus pyogenes [17],18 mm
same,zone of inhibition at 100 µg/mL,Klebsiella pneumoniae [18],15 mm
same,MFC,Candida albicans [19],> 1000 µg/mL
same,MIC,Candida albicans [19],1000 µg/mL
same,zone of inhibition at 50 µg/mL,Pseudomonas aeruginosa [20],12 mm
same,zone of inhibition at 50 µg/mL,Streptococcus pyogenes [21],15 mm
same,MBC,Klebsiella pneumoniae [22],100 µg/mL
same,MIC,Klebsiella pneumoniae [22],100 µg/mL
same,zone of inhibition at 250 µg/mL,Penicillium [23],22 mm
same,MBC,Staphylococcus aureus [24],125 µg/mL
same,MIC,Staphylococcus aureus [24],125 µg/mL
same,zone of inhibition at 25 µg/mL,Staphylococcus aureus [25],10 mm
same,zone of inhibition at 100 µg/mL,Staphylococcus aureus [26],16 mm
same,zone of inhibition at 250 µg/mL,Staphylococcus aureus [27],17 mm
same,MBC,Pseudomonas aeruginosa [28],500 µg/mL
same,MIC,Pseudomonas aeruginosa [28],250 µg/mL
same,zone of inhibition at 50 µg/mL,Aspergillus clavatus [29],22 mm
same,zone of inhibition at 25 µg/mL,Penicillium [30],18 mm
same,zone of inhibition at 50 µg/mL,Klebsiella pneumoniae [31],14 mm
same,zone of inhibition at 100 µg/mL,Aspergillus clavatus [32],22 mm
same,zone of inhibition at 250 µg/mL,Escherichia coli [33],19 mm
same,MFC,Penicillium [34],> 1000 µg/mL
same,MIC,Penicillium [34],> 1000 µg/mL
same,zone of inhibition at 100 µg/mL,Pseudomonas aeruginosa [35],16 mm
same,zone of inhibition at 25 µg/mL,Pseudomonas aeruginosa [36],10 mm
same,zone of inhibition at 25 µg/mL,Candida albicans [37],19 mm
same,zone of inhibition at 50 µg/mL,Staphylococcus aureus [38],12 mm
same,zone of inhibition at 100 µg/mL,Escherichia coli [39],18 mm
same,zone of inhibition at 25 µg/mL,Trichophyton rubrum [40],19 mm
same,MBC,Streptococcus pyogenes [41],200 µg/mL
same,MIC,Streptococcus pyogenes [41],250 µg/mL
same,zone of inhibition at 25 µg/mL,Klebsiella pneumoniae [42],12 mm
same,zone of inhibition at 250 µg/mL,Aspergillus clavatus [43],25 mm
same,zone of inhibition at 250 µg/mL,Candida albicans [44],24 mm
same,zone of inhibition at 50 µg/mL,Trichophyton rubrum [45],20 mm
